Measurements taken from US20120165309A1, “HETERO RING DERIVATIVE” (Astellas Pharma Inc., priority 2009, published 2012).

biological target: T1, Human PI3Kα (Homo sapiens, UniProt P42336); assay: PI3Kα enzyme inhibitory activity (Kinase-Glo Plus luminescence); assay type: biochemical; conditions: Human PI3Kα 12 ng/well, phosphatidylinositol 0.2 μg/well, 37° C. for 3 hours
T1 construct: purchased Millipore Corporation 14-602
Method: 2. PI3Kα Enzyme Inhibitory Activity
Human PI3Kα (12 ng/well, Millipore Corporation, Catalogue No. 14-602), phosphatidylinositol (0.2 μg/well), and the test compound were mixed in a 384-well plate in a reaction buffer (50 mM Hepes, 10 mM NaCl, 10 mM MgCl2, 2 mM EGTA, 2 mM DTT, pH 7.3) (total 10 μl), and incubated at 37° C. for 3 hours. After the reaction, 10 μL of a Kinase-Glo Plus reagent (Promega, Catalogue No. V3772) was added thereto, and a luminescence was measured with a luminometer. The IC50 value of the compound was calculated, taking the inhibition rate without addition of the enzyme as 100% and the inhibition rate without addition of the test compound as 0%, by a logistic method.
(§1) In the Table, Ex represents Example Compound No. as described later, PI3Kδ represents the IC50 value (nM) of a PI3Kδ enzyme inhibitory activity, and PI3Kα represents the IC50 value (nM) of a PI3Kα enzyme inhibitory activity.

T1 sequence (P42336 whole entry): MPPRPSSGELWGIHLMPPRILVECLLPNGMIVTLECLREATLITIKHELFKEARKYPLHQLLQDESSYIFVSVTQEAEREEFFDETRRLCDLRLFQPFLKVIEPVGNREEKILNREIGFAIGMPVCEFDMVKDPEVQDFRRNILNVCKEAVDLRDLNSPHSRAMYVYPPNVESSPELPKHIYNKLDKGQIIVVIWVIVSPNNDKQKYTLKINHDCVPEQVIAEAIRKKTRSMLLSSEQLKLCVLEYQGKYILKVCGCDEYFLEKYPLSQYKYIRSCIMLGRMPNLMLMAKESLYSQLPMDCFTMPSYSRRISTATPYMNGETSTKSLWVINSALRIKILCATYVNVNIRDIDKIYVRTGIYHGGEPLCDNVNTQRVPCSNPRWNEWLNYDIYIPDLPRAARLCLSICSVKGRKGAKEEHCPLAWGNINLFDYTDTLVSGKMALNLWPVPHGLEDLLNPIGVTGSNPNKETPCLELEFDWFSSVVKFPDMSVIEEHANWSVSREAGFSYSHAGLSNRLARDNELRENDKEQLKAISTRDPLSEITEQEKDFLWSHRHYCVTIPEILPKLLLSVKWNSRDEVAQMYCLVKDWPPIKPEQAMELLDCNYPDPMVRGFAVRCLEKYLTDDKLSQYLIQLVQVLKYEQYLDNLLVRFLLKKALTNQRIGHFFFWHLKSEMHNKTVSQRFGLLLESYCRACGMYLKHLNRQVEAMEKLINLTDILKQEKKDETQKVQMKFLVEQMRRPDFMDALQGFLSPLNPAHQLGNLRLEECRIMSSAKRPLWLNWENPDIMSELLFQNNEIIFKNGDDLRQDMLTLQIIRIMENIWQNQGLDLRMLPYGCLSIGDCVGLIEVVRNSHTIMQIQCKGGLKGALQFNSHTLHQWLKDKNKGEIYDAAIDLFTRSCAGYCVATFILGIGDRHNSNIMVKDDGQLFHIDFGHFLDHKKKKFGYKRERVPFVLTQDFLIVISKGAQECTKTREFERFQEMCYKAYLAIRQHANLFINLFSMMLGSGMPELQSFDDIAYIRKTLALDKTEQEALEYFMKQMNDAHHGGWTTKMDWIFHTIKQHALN
T1 sequence (P27986 whole entry partner): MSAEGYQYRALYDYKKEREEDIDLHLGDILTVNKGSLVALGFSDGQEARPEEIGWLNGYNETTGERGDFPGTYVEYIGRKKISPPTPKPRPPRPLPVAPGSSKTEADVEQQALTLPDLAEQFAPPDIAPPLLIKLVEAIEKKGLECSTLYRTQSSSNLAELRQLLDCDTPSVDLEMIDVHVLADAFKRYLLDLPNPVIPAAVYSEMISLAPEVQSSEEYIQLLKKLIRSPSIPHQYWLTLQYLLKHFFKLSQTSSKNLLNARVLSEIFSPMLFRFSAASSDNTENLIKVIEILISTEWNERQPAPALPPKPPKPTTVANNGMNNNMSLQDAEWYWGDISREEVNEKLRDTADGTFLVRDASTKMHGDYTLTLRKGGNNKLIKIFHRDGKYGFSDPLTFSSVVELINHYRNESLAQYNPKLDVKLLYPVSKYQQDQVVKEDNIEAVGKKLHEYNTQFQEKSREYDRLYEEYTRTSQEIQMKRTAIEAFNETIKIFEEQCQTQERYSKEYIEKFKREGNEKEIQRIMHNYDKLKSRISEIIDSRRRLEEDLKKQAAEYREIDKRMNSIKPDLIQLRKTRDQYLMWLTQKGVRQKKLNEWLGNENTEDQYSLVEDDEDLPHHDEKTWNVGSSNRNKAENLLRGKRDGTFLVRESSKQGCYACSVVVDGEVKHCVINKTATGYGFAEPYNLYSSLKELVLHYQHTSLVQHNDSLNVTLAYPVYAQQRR

Compound	IC50
COCC(C)N(C)[C@H]1CC[C@H](CNc2nc(N3CCOCC3)cc(-n3c(C(F)F)nc4ccccc43)n2)CC1 (stereo partly drawn) [Example 434]	1900 nM
C#CCN[C@H]1CC[C@H](CNc2nc(N3CCOCC3)cc(-n3c(C(F)F)nc4ccccc43)n2)CC1 [Example 422]	5800 nM
COC[C@@H]1CCCN1C1CCC(CNc2nc(N3CCOCC3)cc(-n3c(C(F)F)nc4ccccc43)n2)CC1 (stereo partly drawn) [Example 456]	1800 nM
C=CCN(CC(C)(C)O)[C@H]1CC[C@H](CNc2nc(N3CCOCC3)cc(-n3c(C(F)F)nc4ccccc43)n2)CC1 [Example 442]	2700 nM
CCN(CC(C)(C)O)[C@H]1CC[C@H](CNc2nc(N3CCOC[C@@H]3C)cc(-n3c(C(F)F)nc4ccccc43)n2)CC1 [Example 403]	700 nM
COCCN(CC1CC1)[C@H]1CC[C@H](CNc2nc(N3CCOCC3)cc(-n3c(C(F)F)nc4ccccc43)n2)CC1 [Example 271]	2500 nM
COCCN(C1CC1)[C@H]1CC[C@H](CNc2nc(N3CCOCC3)cc(-n3c(C(F)F)nc4ccccc43)n2)CC1 [Example 246]	1700 nM
FC(F)c1nc2ccccc2n1-c1cc(N2CCOCC2)nc(NC[C@H]2CC[C@H](N3CCCCC3)CC2)n1 [Example 177]	> 3000 nM
CN(CC(C)(C)O)[C@H]1CC[C@H](COc2cc(-n3c(C(F)F)nc4ccccc43)nc(N3CCOCC3)n2)CC1 [Example 488]	5600 nM
FC[C@@H]1CCCN1[C@H]1CC[C@H](COc2cc(-n3c(C(F)F)nc4ccccc43)nc(N3CCOCC3)n2)CC1 [Example 482]	3400 nM
CCN(C(C)COC)[C@H]1CC[C@H](CNc2nc(N3CCOC[C@H]3C)cc(-n3c(C(F)F)nc4ccccc43)n2)CC1 (stereo partly drawn) [Example 508]	620 nM
CCN(C(C)COC)[C@H]1CC[C@H](CNc2nc(N3CCOCC3)cc(-n3c(C(F)F)nc4ccccc43)n2)CC1 (stereo partly drawn) [Example 435]	950 nM
CN1CCC[C@H]1C(=O)N[C@H]1CC[C@H](Oc2cc(-n3c(C(F)F)nc4ccccc43)nc(N3CCOCC3)n2)CC1 [Example 500]	> 10000 nM
C[C@H]1COCCN1c1cc(-n2c(C(F)F)nc3ccccc32)nc(NC[C@H]2CC[C@H](N(C)CC(C)(C)O)CC2)n1 [Example 393]	780 nM
CC(C)(O)[C@@H]1CCCN1C1CCC(COc2cc(-n3c(C(F)F)nc4ccccc43)nc(N3CCOCC3)n2)CC1 (stereo partly drawn) [Example 486]	3600 nM
FC(F)c1nc2ccccc2n1-c1cc(NC[C@H]2CC[C@H](N3CCC[C@H]3CN3CCCC3)CC2)nc(N2CCOCC2)n1 [Example 527]	5700 nM
FC[C@@H]1CCCN1[C@H]1CC[C@H](CNc2cc(-n3c(C(F)F)nc4ccccc43)nc(N3CCOCC3)n2)CC1 [Example 484]	2600 nM
CN(CCO)[C@H]1CC[C@H](CNc2nc(N3CCOCC3)cc(-n3c(C(F)F)nc4ccccc43)n2)CC1 [Example 274]	> 3000 nM
O=C(CN1CCCC1)N[C@H]1CC[C@H](Oc2cc(-n3c(C(F)F)nc4ccccc43)nc(N3CCOCC3)n2)CC1 [Example 473]	9900 nM

biological target: T2, human PI3Kδ enzyme (Homo sapiens, UniProt O00329); assay: PI3Kδ enzyme inhibitory activity (PI3-Kinase HTRF Assay kit); assay type: biochemical; conditions: human PI3Kδ 10 ng/well, ATP 30 μM, PIP2 10 μM, room temperature 30 minutes
T2 construct: purchased Millipore Corporation 14-604
T2 sequence (O00329 whole entry): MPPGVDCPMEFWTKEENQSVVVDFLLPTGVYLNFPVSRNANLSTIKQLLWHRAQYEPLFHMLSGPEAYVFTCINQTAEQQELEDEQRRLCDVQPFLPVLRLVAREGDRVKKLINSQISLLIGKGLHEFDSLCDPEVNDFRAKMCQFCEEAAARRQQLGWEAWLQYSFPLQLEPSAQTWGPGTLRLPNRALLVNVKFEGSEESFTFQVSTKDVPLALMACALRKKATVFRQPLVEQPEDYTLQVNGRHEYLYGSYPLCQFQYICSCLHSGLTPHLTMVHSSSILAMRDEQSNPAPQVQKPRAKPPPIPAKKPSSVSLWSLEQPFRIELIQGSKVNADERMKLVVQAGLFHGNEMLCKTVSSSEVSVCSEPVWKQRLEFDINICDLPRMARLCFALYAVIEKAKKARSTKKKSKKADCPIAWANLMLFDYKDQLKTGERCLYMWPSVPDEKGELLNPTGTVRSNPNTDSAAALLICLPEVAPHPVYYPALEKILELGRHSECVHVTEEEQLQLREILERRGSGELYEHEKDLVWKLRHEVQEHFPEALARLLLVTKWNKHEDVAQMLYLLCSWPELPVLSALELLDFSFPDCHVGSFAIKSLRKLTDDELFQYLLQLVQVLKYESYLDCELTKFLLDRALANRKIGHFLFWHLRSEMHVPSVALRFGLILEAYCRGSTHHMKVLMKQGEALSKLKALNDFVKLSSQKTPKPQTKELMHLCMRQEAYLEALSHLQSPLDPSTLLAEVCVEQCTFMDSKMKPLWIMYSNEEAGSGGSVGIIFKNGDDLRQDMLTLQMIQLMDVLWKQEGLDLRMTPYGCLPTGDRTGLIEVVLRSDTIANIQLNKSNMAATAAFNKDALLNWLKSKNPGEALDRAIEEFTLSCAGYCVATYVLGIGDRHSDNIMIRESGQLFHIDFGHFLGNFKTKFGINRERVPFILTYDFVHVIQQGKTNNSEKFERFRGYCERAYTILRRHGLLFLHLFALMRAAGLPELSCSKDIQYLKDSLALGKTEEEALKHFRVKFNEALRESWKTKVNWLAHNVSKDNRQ
T2 sequence (P27986 whole entry partner): as the sequence (P27986 whole entry partner) above
Method: 1. PI3Kδ Enzyme Inhibitory Activity
For the experiment, a PI3-Kinase HTRF Assay kit (Millipore Corporation, Catalogue No. 33-016) and a human PI3Kδ enzyme (Millipore Corporation, Catalogue No. 14-604) were used. The measurement method was in accordance with the appended instructions. The overview thereof is as follows.
PI3Kδ (10 ng/well), phosphatidylinositol-4,5-bisphosphate (10 μM), ATP (30 μM), and the test compound were mixed in a 384-well plate (total 20 μL), and incubated at room temperature for 30 minutes. EDTA and biotinylated phosphatidylinositol-3,4,5-triphosphate were added thereto to stop the reaction. Thereafter, a Europium labeled anti-GST antibody, a GST bond GRP1 PH domain, and streptavidin-APC were added thereto, followed by incubation overnight. An HTRF ratio was measured using an HTRF plate reader. The IC50 value of the compound was calculated, taking the inhibition rate without addition of the enzyme as 100% and the inhibition rate without addition of the test compound as 0%, by means of a logistic method.
as §1

Compound	IC50
COCC(C)N(C)[C@H]1CC[C@H](CNc2nc(N3CCOCC3)cc(-n3c(C(F)F)nc4ccccc43)n2)CC1 (stereo partly drawn) [Example 434]	4.3 nM
C#CCN[C@H]1CC[C@H](CNc2nc(N3CCOCC3)cc(-n3c(C(F)F)nc4ccccc43)n2)CC1 [Example 422]	6 nM
COC[C@@H]1CCCN1C1CCC(CNc2nc(N3CCOCC3)cc(-n3c(C(F)F)nc4ccccc43)n2)CC1 (stereo partly drawn) [Example 456]	13 nM
C=CCN(CC(C)(C)O)[C@H]1CC[C@H](CNc2nc(N3CCOCC3)cc(-n3c(C(F)F)nc4ccccc43)n2)CC1 [Example 442]	10 nM
CCN(CC(C)(C)O)[C@H]1CC[C@H](CNc2nc(N3CCOC[C@@H]3C)cc(-n3c(C(F)F)nc4ccccc43)n2)CC1 [Example 403]	4.9 nM
COCCN(CC1CC1)[C@H]1CC[C@H](CNc2nc(N3CCOCC3)cc(-n3c(C(F)F)nc4ccccc43)n2)CC1 [Example 271]	2.6 nM
COCCN(C1CC1)[C@H]1CC[C@H](CNc2nc(N3CCOCC3)cc(-n3c(C(F)F)nc4ccccc43)n2)CC1 [Example 246]	5.5 nM
FC(F)c1nc2ccccc2n1-c1cc(N2CCOCC2)nc(NC[C@H]2CC[C@H](N3CCCCC3)CC2)n1 [Example 177]	4.8 nM
CN(CC(C)(C)O)[C@H]1CC[C@H](COc2cc(-n3c(C(F)F)nc4ccccc43)nc(N3CCOCC3)n2)CC1 [Example 488]	30 nM
FC[C@@H]1CCCN1[C@H]1CC[C@H](COc2cc(-n3c(C(F)F)nc4ccccc43)nc(N3CCOCC3)n2)CC1 [Example 482]	4.6 nM
CCN(C(C)COC)[C@H]1CC[C@H](CNc2nc(N3CCOC[C@H]3C)cc(-n3c(C(F)F)nc4ccccc43)n2)CC1 (stereo partly drawn) [Example 508]	4.6 nM
CCN(C(C)COC)[C@H]1CC[C@H](CNc2nc(N3CCOCC3)cc(-n3c(C(F)F)nc4ccccc43)n2)CC1 (stereo partly drawn) [Example 435]	2.8 nM
CN1CCC[C@H]1C(=O)N[C@H]1CC[C@H](Oc2cc(-n3c(C(F)F)nc4ccccc43)nc(N3CCOCC3)n2)CC1 [Example 500]	14 nM
C[C@H]1COCCN1c1cc(-n2c(C(F)F)nc3ccccc32)nc(NC[C@H]2CC[C@H](N(C)CC(C)(C)O)CC2)n1 [Example 393]	7.7 nM
CC(C)(O)[C@@H]1CCCN1C1CCC(COc2cc(-n3c(C(F)F)nc4ccccc43)nc(N3CCOCC3)n2)CC1 (stereo partly drawn) [Example 486]	9.8 nM
FC(F)c1nc2ccccc2n1-c1cc(NC[C@H]2CC[C@H](N3CCC[C@H]3CN3CCCC3)CC2)nc(N2CCOCC2)n1 [Example 527]	14 nM
FC[C@@H]1CCCN1[C@H]1CC[C@H](CNc2cc(-n3c(C(F)F)nc4ccccc43)nc(N3CCOCC3)n2)CC1 [Example 484]	1.5 nM
CN(CCO)[C@H]1CC[C@H](CNc2nc(N3CCOCC3)cc(-n3c(C(F)F)nc4ccccc43)n2)CC1 [Example 274]	9.7 nM
O=C(CN1CCCC1)N[C@H]1CC[C@H](Oc2cc(-n3c(C(F)F)nc4ccccc43)nc(N3CCOCC3)n2)CC1 [Example 473]	30 nM

system: Spleen cells (B cell proliferation); assay: Rat B cell proliferation inhibition test (anti-rat IgM, [3H]thymidine); assay type: cell-based; conditions: anti-rat IgM 3 μg/well, 48 hours culture, [3H]thymidine uptake
Method: 4. Rat B Cell Proliferation Inhibition Test
Spleen cells (1.0×10^5 cells/well) prepared from male LEW/CrlCrlj rats (Charles River Laboratories, Japan, Inc.), mouse F(ab′)2 fragment anti-rat IgM (3 μg/well, SouthernBiotech Associates, Inc., Catalogue No. 3082-14) and the test compound dissolved in DMSO (final DMSO concentration 0.1%) were mixed in a 96-well plate using a 10% FCS-containing RPMI-1640 culture medium (total 200 μL). They were cultured in a CO2 incubator for 48 hours and [^3H]thymidine (925 GBq/mmol, Moravek Biochemicals, Inc., Catalogue No. MT6038) was added thereto at 0.037 MBq/well at 4 hours before completion of culture. Cells were harvested in a GF/C glass filter using a cell harvester, and a radioactivity on the filter was measured using a liquid scintillation counter. The IC50 value of the compound was calculated, taking the dpm (disintegration per minute) without addition of IgM as an inhibition rate of 100% and the dpm without addition of the test compound as an inhibition rate of 0%, by a logistic method.

Compound	IC50
COCC(C)N(C)[C@H]1CC[C@H](CNc2nc(N3CCOCC3)cc(-n3c(C(F)F)nc4ccccc43)n2)CC1 (stereo partly drawn) [Example 434]	1.3 nM
C#CCN[C@H]1CC[C@H](CNc2nc(N3CCOCC3)cc(-n3c(C(F)F)nc4ccccc43)n2)CC1 [Example 422]	4.9 nM
COC[C@@H]1CCCN1C1CCC(CNc2nc(N3CCOCC3)cc(-n3c(C(F)F)nc4ccccc43)n2)CC1 (stereo partly drawn) [Example 456]	1.1 nM
C=CCN(CC(C)(C)O)[C@H]1CC[C@H](CNc2nc(N3CCOCC3)cc(-n3c(C(F)F)nc4ccccc43)n2)CC1 [Example 442]	1.2 nM
CCN(CC(C)(C)O)[C@H]1CC[C@H](CNc2nc(N3CCOC[C@@H]3C)cc(-n3c(C(F)F)nc4ccccc43)n2)CC1 [Example 403]	0.82 nM
COCCN(CC1CC1)[C@H]1CC[C@H](CNc2nc(N3CCOCC3)cc(-n3c(C(F)F)nc4ccccc43)n2)CC1 [Example 271]	5.5 nM
COCCN(C1CC1)[C@H]1CC[C@H](CNc2nc(N3CCOCC3)cc(-n3c(C(F)F)nc4ccccc43)n2)CC1 [Example 246]	2.1 nM
FC(F)c1nc2ccccc2n1-c1cc(N2CCOCC2)nc(NC[C@H]2CC[C@H](N3CCCCC3)CC2)n1 [Example 177]	1.1 nM
CN(CC(C)(C)O)[C@H]1CC[C@H](COc2cc(-n3c(C(F)F)nc4ccccc43)nc(N3CCOCC3)n2)CC1 [Example 488]	2.8 nM
FC[C@@H]1CCCN1[C@H]1CC[C@H](COc2cc(-n3c(C(F)F)nc4ccccc43)nc(N3CCOCC3)n2)CC1 [Example 482]	4.6 nM
CCN(C(C)COC)[C@H]1CC[C@H](CNc2nc(N3CCOC[C@H]3C)cc(-n3c(C(F)F)nc4ccccc43)n2)CC1 (stereo partly drawn) [Example 508]	0.37 nM
CCN(C(C)COC)[C@H]1CC[C@H](CNc2nc(N3CCOCC3)cc(-n3c(C(F)F)nc4ccccc43)n2)CC1 (stereo partly drawn) [Example 435]	0.58 nM
CN1CCC[C@H]1C(=O)N[C@H]1CC[C@H](Oc2cc(-n3c(C(F)F)nc4ccccc43)nc(N3CCOCC3)n2)CC1 [Example 500]	2.7 nM
C[C@H]1COCCN1c1cc(-n2c(C(F)F)nc3ccccc32)nc(NC[C@H]2CC[C@H](N(C)CC(C)(C)O)CC2)n1 [Example 393]	0.7 nM
CC(C)(O)[C@@H]1CCCN1C1CCC(COc2cc(-n3c(C(F)F)nc4ccccc43)nc(N3CCOCC3)n2)CC1 (stereo partly drawn) [Example 486]	3.6 nM
FC(F)c1nc2ccccc2n1-c1cc(NC[C@H]2CC[C@H](N3CCC[C@H]3CN3CCCC3)CC2)nc(N2CCOCC2)n1 [Example 527]	2.8 nM
FC[C@@H]1CCCN1[C@H]1CC[C@H](CNc2cc(-n3c(C(F)F)nc4ccccc43)nc(N3CCOCC3)n2)CC1 [Example 484]	2.2 nM
CN(CCO)[C@H]1CC[C@H](CNc2nc(N3CCOCC3)cc(-n3c(C(F)F)nc4ccccc43)n2)CC1 [Example 274]	5.5 nM
O=C(CN1CCCC1)N[C@H]1CC[C@H](Oc2cc(-n3c(C(F)F)nc4ccccc43)nc(N3CCOCC3)n2)CC1 [Example 473]	4 nM
